# Experimental data reported in patent publication US6525059B1, “Substituted pyrazoles as p38 kinase inhibitors” (G. D. Searle & Company, priority 1998, dated 2003).
# Legend:
# [1] = tested on: TNF-α; assay: LPS stimulation of TNF production by U937 cells; type: cell-based, human; settings: Homo sapiens; for inhibition at 1 µM: U-937, @ 1.0 uM, read-out: U937 Cell % inhib @ conc.; for IC50: U-937, TNF production, LPS-stimulated human U937 cells, read-out: U937 Cell IC50
# How it was run: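 PMA-differentiated human U937 cells (20 ng/ml PMA, 24 h, then 24-48 h rest) at 2 million cells/ml, 0.1% DMSO final, stimulated with E. coli LPS (100 ng/ml final) for 4 h at 37° C. TNF-α in medium measured by ELISA; IC50 in μM.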
# [2] = biological target: T1, human p38 kinase alpha (Homo sapiens, UniProt Q16539); assay: p38 kinase in vitro assay, phosphorylation of biotinylated PHAS-I with gamma 32P-ATP; type: biochemical; settings: read-out: P38 alpha kinase IC50
# T1 construct: The coding region of the human p38a cDNA was obtained by PCR-amplification from RNA isolated from the human monocyte cell line THP.1; GST (N); made in house; host or cells: E. coli DH10B
# T1 sequence (Q16539 whole entry): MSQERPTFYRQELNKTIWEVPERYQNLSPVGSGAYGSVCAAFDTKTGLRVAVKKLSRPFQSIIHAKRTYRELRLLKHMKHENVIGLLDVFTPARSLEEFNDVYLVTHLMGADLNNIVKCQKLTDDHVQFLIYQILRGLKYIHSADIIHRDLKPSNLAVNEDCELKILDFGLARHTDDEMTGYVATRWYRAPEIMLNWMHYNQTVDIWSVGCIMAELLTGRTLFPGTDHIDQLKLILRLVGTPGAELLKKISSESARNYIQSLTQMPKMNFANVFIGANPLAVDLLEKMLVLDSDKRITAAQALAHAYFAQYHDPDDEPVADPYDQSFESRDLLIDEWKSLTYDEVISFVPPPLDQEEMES
# How it was run: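 Radiometric filter-capture read-out: streptavidin plates trap biotin-PHAS-I labelled by activated (MKK6) human p38α from γ-32P-ATP. Buffer 25 mM HEPES pH 7.5, 10 mM magnesium acetate, 50 μM cold ATP; reactions 1 h or overnight at 30 °C; inhibitors 10-fold dilutions 100 to 0.001 μM, triplicates, 1% DMSO.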
IC50 [2],IC50 [1],SMILES,inhibition at 1 µM [1]
400 nM,,CC(=O)Nc1nc(C)c(S(=O)(=O)NCc2[nH]nc(-c3ccc(F)cc3)c2-c2ccncc2)s1 [Example B-0222],29%
200 nM,,CC(=O)Nc1ccc(S(=O)(=O)NCc2[nH]nc(-c3ccc(F)cc3)c2-c2ccncc2)cc1 [Example B-0223],1%
47 nM,,O=S(=O)(NCc1[nH]nc(-c2ccc(F)cc2)c1-c1ccncc1)c1ccc(Cl)cc1 [Example B-0225],37%
41 nM,,O=S(=O)(NCc1[nH]nc(-c2ccc(F)cc2)c1-c1ccncc1)c1cccc(Cl)c1Cl [Example B-0230],30%
55 nM,,O=S(=O)(NCc1[nH]nc(-c2ccc(F)cc2)c1-c1ccncc1)c1ccc(F)cc1Cl [Example B-0231],40%
48 nM,,Cc1ccc(F)cc1S(=O)(=O)NCc1[nH]nc(-c2ccc(F)cc2)c1-c1ccncc1 [Example B-0232],24%
95 nM,,O=S(=O)(NCc1[nH]nc(-c2ccc(F)cc2)c1-c1ccncc1)c1c(Cl)cccc1Cl [Example B-0233],43%
1310 nM,,O=S(=O)(NCc1[nH]nc(-c2ccc(F)cc2)c1-c1ccncc1)c1cccc(Br)c1 [Example B-0235],90%
77 nM,,O=S(=O)(NCc1[nH]nc(-c2ccc(F)cc2)c1-c1ccncc1)c1ccccc1C(F)(F)F [Example B-0236],46%
200 nM,,O=S(=O)(NCc1[nH]nc(-c2ccc(F)cc2)c1-c1ccncc1)c1ccccc1Cl [Example B-0240],70%
100 nM,,O=S(=O)(NCc1[nH]nc(-c2ccc(F)cc2)c1-c1ccncc1)c1cc(Cl)cc(Cl)c1 [Example B-0241],45%
< 100 nM,,O=S(=O)(NCc1[nH]nc(-c2ccc(F)cc2)c1-c1ccncc1)c1ccc(F)c(Cl)c1 [Example B-0242],78%
< 100 nM,> 1000 nM,COc1ccc(C)cc1S(=O)(=O)NCc1[nH]nc(-c2ccc(F)cc2)c1-c1ccncc1 [Example B-0246],
82 nM,,O=S(=O)(NCc1[nH]nc(-c2ccc(F)cc2)c1-c1ccncc1)c1cccc(C(F)(F)F)c1 [Example B-0247],75%
310 nM,,Cc1noc(C)c1S(=O)(=O)NCc1[nH]nc(-c2ccc(F)cc2)c1-c1ccncc1 [Example B-0251],1%
41 nM,,O=S(=O)(NCc1[nH]nc(-c2ccc(F)cc2)c1-c1ccncc1)c1cccc2nonc12 [Example B-0252],54%
320 nM,,O=C(NCc1ccc(S(=O)(=O)NCc2[nH]nc(-c3ccc(F)cc3)c2-c2ccncc2)s1)c1ccccc1 [Example B-0255],68%
1710 nM,,Cc1c(C)c(S(=O)(=O)NCc2[nH]nc(-c3ccc(F)cc3)c2-c2ccncc2)c(C)c2c1OC(C)(C)CC2 [Example B-0257],11%
370 nM,,O=S(=O)(NCc1[nH]nc(-c2ccc(F)cc2)c1-c1ccncc1)c1ccc(-c2ccccn2)s1 [Example B-0258],63%

IC50 [2],IC50 [1],SMILES,inhibition at 1 µM [1]
350 nM,,O=S(=O)(NCc1[nH]nc(-c2ccc(F)cc2)c1-c1ccncc1)c1cc(S(=O)(=O)c2ccccc2)cs1 [Example B-0259],58%
560 nM,,Cc1ccc(S(C)(=O)=O)cc1S(=O)(=O)NCc1[nH]nc(-c2ccc(F)cc2)c1-c1ccncc1 [Example B-0260],23%
490 nM,,CS(=O)(=O)c1ccccc1S(=O)(=O)NCc1[nH]nc(-c2ccc(F)cc2)c1-c1ccncc1 [Example B-0261],23%
410 nM,,O=S(=O)(NCc1[nH]nc(-c2ccc(F)cc2)c1-c1ccncc1)c1ccc(-c2ccon2)s1 [Example B-0262],89%
620 nM,,O=S(=O)(NCc1[nH]nc(-c2ccc(F)cc2)c1-c1ccncc1)c1ccc(S(=O)(=O)c2ccccc2)s1 [Example B-0263],64%
140 nM,,CN(C)S(=O)(=O)NCc1[nH]nc(-c2ccc(F)cc2)c1-c1ccncc1 [Example B-0264],18%
920 nM,,O=S(=O)(NCc1[nH]nc(-c2ccc(F)cc2)c1-c1ccncc1)c1cccc2cnccc12 [Example B-0265],24%
250 nM,,Cn1cnc(S(=O)(=O)NCc2[nH]nc(-c3ccc(F)cc3)c2-c2ccncc2)c1 [Example B-0266],24%
480 nM,,Cc1ccccc1C(=O)NCc1[nH]nc(-c2ccc(F)cc2)c1-c1ccncc1 [Example B-0267],11%
3390 nM,,O=C(NCc1[nH]nc(-c2ccc(F)cc2)c1-c1ccncc1)c1ccc(Cl)cc1 [Example B-0268],19%
9810 nM,,Cc1ccc(C(=O)NCc2[nH]nc(-c3ccc(F)cc3)c2-c2ccncc2)cc1 [Example B-0269],19%
5790 nM,,O=C(NCc1[nH]nc(-c2ccc(F)cc2)c1-c1ccncc1)c1cccc(C(F)(F)F)c1 [Example B-0270],13%
7550 nM,,O=C(NCc1[nH]nc(-c2ccc(F)cc2)c1-c1ccncc1)c1cc2ccccc2s1 [Example B-0271],12%
1810 nM,,CC(C)c1cc(C(C)C)c(C(=O)NCc2[nH]nc(-c3ccc(F)cc3)c2-c2ccncc2)c(C(C)C)c1 [Example B-0272],48%
5030 nM,,O=C(NCc1[nH]nc(-c2ccc(F)cc2)c1-c1ccncc1)c1cc(Cl)cc(Cl)c1 [Example B-0273],13%
2680 nM,,N#Cc1cccc(C(=O)NCc2[nH]nc(-c3ccc(F)cc3)c2-c2ccncc2)c1 [Example B-0274],25%
2670 nM,,O=C(NCc1[nH]nc(-c2ccc(F)cc2)c1-c1ccncc1)c1cccc2ccccc12 [Example B-0275],33%
1250 nM,,O=C(NCc1[nH]nc(-c2ccc(F)cc2)c1-c1ccncc1)c1ccc(F)c(F)c1 [Example B-0276],26%
680 nM,,O=C(NCc1[nH]nc(-c2ccc(F)cc2)c1-c1ccncc1)c1cc(F)cc(F)c1 [Example B-0277],34%

IC50 [2],IC50 [1],SMILES,inhibition at 1 µM [1]
1260 nM,,O=C(NCc1[nH]nc(-c2ccc(F)cc2)c1-c1ccncc1)c1c(F)ccc(F)c1F [Example B-0278],36%
1390 nM,,O=C(NCc1[nH]nc(-c2ccc(F)cc2)c1-c1ccncc1)c1cccc(Cl)c1Cl [Example B-0279],33%
7370 nM,,O=C(NCc1[nH]nc(-c2ccc(F)cc2)c1-c1ccncc1)c1cc(C(F)(F)F)ccc1F [Example B-0281],24%
83 nM,,O=C(NCc1[nH]nc(-c2ccc(F)cc2)c1-c1ccncc1)c1c(F)cccc1C(F)(F)F [Example B-0284],65%
4570 nM,,O=C(NCc1[nH]nc(-c2ccc(F)cc2)c1-c1ccncc1)c1cccc(C(F)(F)F)c1F [Example B-0285],29%
330 nM,,O=C(NCc1[nH]nc(-c2ccc(F)cc2)c1-c1ccncc1)c1ccc(F)cc1C(F)(F)F [Example B-0286],50%
4000 nM,,O=C(NCc1[nH]nc(-c2ccc(F)cc2)c1-c1ccncc1)c1ccc(F)c(C(F)(F)F)c1 [Example B-0287],22%
4460 nM,,O=C(NCc1[nH]nc(-c2ccc(F)cc2)c1-c1ccncc1)c1cc(F)cc(C(F)(F)F)c1 [Example B-0288],26%
150 nM,,O=C(NCc1[nH]nc(-c2ccc(F)cc2)c1-c1ccncc1)c1ccccc1Cl [Example B-0289],55%
1330 nM,,O=C(NCc1[nH]nc(-c2ccc(F)cc2)c1-c1ccncc1)c1ccc(Cl)cc1Cl [Example B-0291],20%
8030 nM,,O=C(NCc1[nH]nc(-c2ccc(F)cc2)c1-c1ccncc1)c1cc(F)c(F)cc1F [Example B-0296],36%
580 nM,,O=C(NCc1[nH]nc(-c2ccc(F)cc2)c1-c1ccncc1)c1c(F)cccc1F [Example B-0298],48%
870 nM,,O=C(NCc1[nH]nc(-c2ccc(F)cc2)c1-c1ccncc1)c1ccc(F)cc1F [Example B-0299],54%
780 nM,,O=C(NCc1[nH]nc(-c2ccc(F)cc2)c1-c1ccncc1)c1cccc(Cl)c1 [Example B-0300],32%
190 nM,,O=C(NCc1[nH]nc(-c2ccc(F)cc2)c1-c1ccncc1)c1ccccc1Br [Example B-0301],50%
4020 nM,,O=C(NCc1[nH]nc(-c2ccc(F)cc2)c1-c1ccncc1)c1ccc(C(F)(F)F)cc1 [Example B-0302],24%
750 nM,,CC(C)C(=O)N[C@H](C)c1[nH]nc(-c2ccc(F)cc2)c1-c1ccncc1 [Example B-0355],40%
1460 nM,660 nM,C=CCOC(=O)N[C@H](C)c1[nH]nc(-c2ccc(F)cc2)c1-c1ccncc1 [Example B-0357],
